Activity calls are given as the source filed them. The rule behind the calls is not given here.
Assays:
Escherichia coli = assay: Antibacterial activity against Escherichia coli CCARM 1009 assessed as inhibition zone at 10 mg/ml incubated for 18 hrs by radial diffusion assay; format: functional, organism-based
Salmonella typhimurium = assay: Antibacterial activity against Salmonella typhimurium CCARM 8250 assessed as inhibition zone at 10 mg/ml incubated for 18 hrs by radial diffusion assay; format: functional, organism-based; details: Salmonella enterica subsp. enterica serovar Typhimurium
Enterococcus faecium [1] = assay: Antibacterial activity against Enterococcus faecium CCARM 5203 assessed as inhibition zone at 10 mg/ml incubated for 18 hrs by radial diffusion assay; format: functional, organism-based
Enterococcus faecium [2] = assay: Antibacterial activity against Enterococcus faecium CCARM 5203 assessed as reduction in bacterial growth at 12.5 ug/ml incubated for 18 hrs by serial dilution method relative to control; format: functional

SMILES	inhibition zone (IZ) (Escherichia coli)	inhibition zone (IZ) (Salmonella typhimurium)	inhibition zone (IZ) (Enterococcus faecium [1])	growth inhibition (GI) (Enterococcus faecium [2])	inhibition of growth at 12.5 µg/mL (Enterococcus faecium [2]; CCARM 5203, 18 h, read-out: GI)
C/C(=C/C=C/C=C/C(C)C(=O)O[C@@H]1O[C@H](CO)[C@@H](O)[C@H](O)[C@H]1O)NC(=O)CC(O)\C(C)=C/C=C\C=C(C)\C=C\C=C/C=C/CNC(=O)C(O)CC(C)C (some centres undefined)	inactive	inactive	inactive	–	–
C/C(=C/C=C/C=C/C(C)C(=O)O)NC(=O)CC(O)\C(C)=C/C=C\C=C(C)\C=C\C=C/C=C/CNC(=O)C(CC(C)C)O[C@@H]1O[C@H](CO)[C@@H](O)[C@H](O)[C@H]1O (some centres undefined)	inactive	inactive	inactive	inactive	–
C/C(=C/C=C/C=C/C(C)C(=O)O)NC(=O)CC(O)\C(C)=C/C=C\C=C(C)\C=C\C=C/C=C/CNC(=O)C(O)CC(C)C (centres undefined)	Active	Active	Active	–	> 80%
C/C(=C/C=C/C=C/C(C)C(=O)O)NC(=O)CC(O)\C(C)=C/C=C\C=C(C)\C=C\C=C/CCCNC(=O)C(CC(C)C)O[C@@H]1O[C@H](CO)[C@@H](O)[C@H](O)[C@H]1O (some centres undefined)	inactive	inactive	inactive	inactive	–
C/C(=C/C=C/C=C/C(C)C(=O)O)NC(=O)CC(O)\C(C)=C/C=C\C=C(C)\C=C\C=C/CCCNC(=O)C(O)CC(C)C (centres undefined)	–	–	–	Active	–
C/C(=C/C=C/C=C/C(C)C(=O)O)NC(=O)CC(O)\C(C)=C/C=C\C=C(C)\C=C\C=C\CCCNC(=O)C(CC(C)C)O[C@@H]1O[C@H](CO)[C@@H](O)[C@H](O)[C@H]1O (some centres undefined)	inactive	inactive	inactive	–	–

From ChEMBL document CHEMBL4414664, “An Effective Strategy for Identification of Highly Unstable Bacillaenes” (2019)
